The subject of this assay is IgE antibodies from patients. Nature of the assay: Wheat epitope mapping (2): overlapping 10-amino-acid peptide fragments shifted by one amino acid.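 For Rank of partial sequence as epitope binding to IgE antibody: key = sequence deemed particularly important within the common 15-residue sequence.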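 For epitope sequence binding to IgE antibody, rank (Key/Preferably/More preferably): key of grades: preferably = shorter partial sequence still acting as epitope; more preferably = sequence improving IgE binding; key = particularly important sequence.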 Format: binding, human. As for the experimental part: The peptides to be synthesized were shifted by one amino acid.
The library was prepared by the same procedure as described above in (A), and the presence or absence of binding of an IgE antibody present in the serum of a patient to each peptide fragment was measured by the same technique as described above. Numeric values determined from images obtained as a result of carrying out only the procedures (1) and (4) to (6) described above in the subsection titled (3) Spotting of cellulose-bound peptide solution were used as control values. The control value of each peptide was subtracted from numeric values determined from images obtained from results about the serum of patients, and the obtained value of the difference was compared with values of the peptides serving as the basis of overlapping.
Chemiluminescence intensity in images obtained by measurement was converted into a numeric value in the same manner as in (A). Numeric values determined from images obtained as a result of carrying out only the procedures (1) and (4) to (6) described above in the subsection titled (3) Spotting of cellulose-bound peptide solution (secondary antibody measurement values) were used as control values. The control value of each peptide was subtracted from numeric values determined from images obtained from results about the serum of patients. When values obtained using the sequences (SEQ ID NOs: 29, 131, 191, 281, 346, 414, 493, 562, 640, 706, 776, 899, 974, 1010, 1089, 1142, 1166, 1209, 1257, 1297, 1367, 1403, 1508, 1566, 1598, 1608, 1685, 1753, 1789, 1836, 1895, 1977, 2004, 2027, 2068, 2154, 2217, 2265, 2309, 2342, 2419, 2491, 2545, 2613, 2631, 2674, 2701, 2774, 2809 and 2830) serving as the basis of overlapping were defined as 100%, it was determined that: a peptide having a value of the difference that was less than 30% had no binding activity against IgE antibodies; a peptide having a value of the difference that was 30% or more and less than 50% had binding activity, albeit poor, against IgE antibodies; a peptide having a value of the difference that was 50% or more and less than 70% had binding activity, albeit somewhat poor, against IgE antibodies; and a peptide having a value of the difference that was 70% or more had equivalent or good binding activity against IgE antibodies and was thus a peptide had remaining binding activity against IgE antibodies.

Setting [1] is: serum of patient G7 (adult, general immediate type allergy to wheat), sequence without X.
The mark [2] stands for this setting: serum of patient P21 (WDEIA), sequence without X.
The mark [3] stands for this setting: serum of patient P33 (WDEIA), sequence without X.
Where [4] appears, read: serum of patient P34 (WDEIA), sequence without X.

As for “2376 (AYVTEIV; REGION 1..7: note = epitope) [compound 2376]”, the “Epitope sequence binding to IgE antibody, rank of the sequence (Key/Preferably/More preferably)” value (serum of patient P27 (WDEIA), sequence without X) is listed as “Preferably”.

In the case of “1850 (VRTLQ; REGION 1..5: note = epitope) [compound 1850]”, under “serum of patient P16 (WDEIA)”, the “epitope sequence binding to IgE antibody, rank (Key/Preferably/More preferably)” value is recorded as “Key”.

“1562 (QVPLVQQQQF; REGION 1..10: note = epitope) [compound 1562]”: the “Rank of partial sequence as epitope binding to IgE antibody” value (shortened to “Rank of partial sequence”) under setting [1] was “More preferably”.

As to “1444 (YLQPQQPIS; REGION 1..9: note = epitope) [compound 1444]”, the “Rank of partial sequence” value under setting [2] is listed as “Preferably”.

For the substance “1742 (KEAAN; REGION 1..5: note = epitope) [compound 1742]”, the “epitope sequence binding to IgE antibody, rank (Key/Preferably/More preferably)” value (serum of patient G4 (adult, general immediate type allergy to wheat)) is on record as “Preferably”.

As for “2647 (KEAAEM; REGION 1..6: note = epitope) [compound 2647]”, under “serum of patient P26 (WDEIA), partial sequence”, the “Epitope sequence binding to IgE antibody, rank of the sequence” value is reported as “Key”.

On to “2289 (GGIDK; REGION 1..5: note = epitope) [compound 2289]”, for which the “Epitope sequence binding to IgE antibody, rank of the sequence (Key/Preferably/More preferably)” value under setting [3] was “Key”.

“2591 (QLVQQL; REGION 1..6: note = epitope) [compound 2591]”: under “serum of patient P34 (WDEIA), partial sequence”, the “Epitope sequence binding to IgE antibody, rank of the sequence” value is reported as “Key”.

Take “2460 (LKAWSGK; REGION 1..7: note = epitope) [compound 2460]”: the “Epitope sequence binding to IgE antibody, rank of the sequence (Key/Preferably/More preferably/Further preferably)” value (serum of patient P50 (child, general immediate type allergy to wheat), sequence without X) was “Further preferably”.

As for “1499 (YLQPQQPISQ; REGION 1..10: note = epitope) [compound 1499]”, the “Rank of partial sequence” value under setting [1] was “More preferably”.

As for “1485 (SQQQA; REGION 1..5: note = epitope) [compound 1485]”, the “Rank of partial sequence” value under setting [4] was “Key”.

Turning to “1916 (QQQQFPGQQQ; REGION 1..10: note = epitope) [compound 1916]”, where the note is “serum of patient P9 (WDEIA)”, the “epitope sequence binding to IgE antibody, rank (Key/Preferably/More preferably)” value is recorded as “Key”.

Turning to “2250 (SRLLRGIRN; REGION 1..9: note = epitope) [compound 2250]”, where the note is “serum of patient P52 (child, general immediate type allergy to wheat), sequence without X”, the “Epitope sequence binding to IgE antibody, rank of the sequence (Key/Preferably/More preferably)” value is on record as “Preferably”.

As to “2548 (QSTY; REGION 1..4: note = epitope) [compound 2548]”, under “serum of patient P2 (WDEIA), partial sequence”, the “Epitope sequence binding to IgE antibody, rank of the sequence” value was “Key”.

Consider “1919 (VPLVQQQ; REGION 1..7: note = epitope) [compound 1919]”, for which, where the note is “serum of patient P10 (WDEIA)”, the “epitope sequence binding to IgE antibody, rank (Key/Preferably/More preferably)” value is listed as “Key”.

For “2308 (ERFEK; REGION 1..5: note = epitope) [compound 2308]”, the “Epitope sequence binding to IgE antibody, rank of the sequence (Key/Preferably/More preferably)” value (serum of patient G9 (adult, general immediate type allergy to wheat), sequence without X) was “Key”.

Consider “1324 (INVEN; REGION 1..5: note = epitope) [compound 1324]”, for which the “Epitope sequence binding to IgE antibody, rank of the sequence” value (serum of patient P20 (WDEIA), sequence without X) is given as “Preferably”.

As to “1538 (LVQQQQFLGQ; REGION 1..10: note = epitope) [compound 1538]”, the “Rank of partial sequence” value (serum of patient P17 (WDEIA), sequence without X) is “Further preferably”.

On to “1710 (KEAANFTS; REGION 1..8: note = epitope) [compound 1710]”, for which the “epitope sequence binding to IgE antibody, rank (Key/Preferably/More preferably)” value (serum of patient P34 (WDEIA)) is given as “More preferably”.

For “2266 (GGIDKRV; REGION 1..7: note = epitope) [compound 2266]”, the “Epitope sequence binding to IgE antibody, rank of the sequence (Key/Preferably/More preferably)” value (serum of patient P5 (WDEIA), sequence without X) was “Key”.

On to “1738 (EAANF; REGION 1..5: note = epitope) [compound 1738]”, for which the “epitope sequence binding to IgE antibody, rank (Key/Preferably/More preferably)” value (serum of patient P57 (child, general immediate type allergy to wheat)) is reported as “Key”.

With “2531 (FQPSQLN; REGION 1..7: note = epitope) [compound 2531]”, the “Epitope sequence binding to IgE antibody, rank of the sequence” value (serum of patient G2 (adult, general immediate type allergy to wheat), partial sequence) is “Key”.

Consider “2292 (KRVIERFEK; REGION 1..9: note = epitope) [compound 2292]”, for which, under setting [4], the “Epitope sequence binding to IgE antibody, rank of the sequence (Key/Preferably/More preferably)” value is reported as “Preferably”.

For “2243 (RLLRGIRNY; REGION 1..9: note = epitope) [compound 2243]”, under “serum of patient P36 (WDEIA), sequence without X”, the “Epitope sequence binding to IgE antibody, rank of the sequence (Key/Preferably/More preferably)” value is on record as “Key”.

As for “2743 (YKIGGIGTV; REGION 1..9: note = epitope) [compound 2743]”, the “Epitope sequence binding to IgE antibody, rank of the sequence” value (serum of patient P33 (WDEIA), partial sequence) was “Key”.

For “1445 (YLQPQ; REGION 1..5: note = epitope) [compound 1445]”, under setting [2], the “Rank of partial sequence” value is on record as “Key”.

Turning to “1575 (QQPQQ; REGION 1..5: note = epitope) [compound 1575]”, the “Rank of partial sequence” value (serum of patient P16 (WDEIA), sequence without X) is reported as “Preferably”.

For the substance “1952 (QFPGQQ; REGION 1..6: note = epitope) [compound 1952]”, the “epitope sequence binding to IgE antibody, rank (Key/Preferably/More preferably)” value (serum of patient P24 (WDEIA)) is given as “Key”.

For the substance “1428 (YLQPQQPIS; REGION 1..9: note = epitope) [compound 1428]”, for the setting “serum of patient P14 (WDEIA), sequence without X”, the “Rank of partial sequence” value is given as “Preferably”.

For “1613 (YNPD; REGION 1..4: note = epitope) [compound 1613]”, where the note is “serum of patient P15 (WDEIA), sequence without X”, the “Rank of partial sequence” value was “Key”.

With “2390 (VTEIV; REGION 1..5: note = epitope) [compound 2390]”, under setting [3], the “Epitope sequence binding to IgE antibody, rank of the sequence (Key/Preferably/More preferably)” value is listed as “Key”.

Take “1374 (PWQQQPLP; REGION 1..8: note = epitope) [compound 1374]”: for the setting “serum of patient P7 (WDEIA), sequence without X”, the “Epitope sequence binding to IgE antibody, rank of the sequence” value is recorded as “Preferably”.

On to “2223 (IRNYRVA; REGION 1..7: note = epitope) [compound 2223]”, for which the “Epitope sequence binding to IgE antibody, rank of the sequence (Key/Preferably/More preferably)” value (serum of patient P8 (WDEIA), sequence without X) is listed as “Key”.

In the case of “1809 (ELEALPKFL; REGION 1..9: note = epitope) [compound 1809]”, the “epitope sequence binding to IgE antibody, rank (Key/Preferably/More preferably)” value (serum of patient P26 (WDEIA)) is “Preferably”.

In the case of “2293 (ERFE; REGION 1..4: note = epitope) [compound 2293]”, the “Epitope sequence binding to IgE antibody, rank of the sequence (Key/Preferably/More preferably)” value under setting [4] was “Key”.

As for “1879 (TVRTLQ; REGION 1..6: note = epitope) [compound 1879]”, the “epitope sequence binding to IgE antibody, rank (Key/Preferably/More preferably)” value (serum of patient P32 (WDEIA)) was “Key”.

In the case of “1839 (TVRTLQR; REGION 1..7: note = epitope) [compound 1839]”, the “epitope sequence binding to IgE antibody, rank (Key/Preferably/More preferably)” value (serum of patient P5 (WDEIA)) is listed as “Preferably”.

On to “1802 (SGKELEALPK; REGION 1..10: note = epitope) [compound 1802]”, for which the “epitope sequence binding to IgE antibody, rank (Key/Preferably/More preferably)” value (serum of patient P18 (WDEIA)) is “Preferably”.

As to “1681 (DKVPF; REGION 1..5: note = epitope) [compound 1681]”, the “Rank of partial sequence” value (serum of patient G6 (adult, general immediate type allergy to wheat), sequence without X) was “Preferably”.

On to “2640 (RFEKEAAEMN; REGION 1..10: note = epitope) [compound 2640]”, for which, for the setting “serum of patient P14 (WDEIA), partial sequence”, the “Epitope sequence binding to IgE antibody, rank of the sequence” value is listed as “Preferably”.

On to “1223 (IQQQP; REGION 1..5: note = epitope) [compound 1223]”, for which the “Epitope sequence binding to IgE antibody, rank of the sequence” value (serum of patient P10 (WDEIA), sequence without X) was “Key”.

With “1727 (KEAANF; REGION 1..6: note = epitope) [compound 1727]”, the “epitope sequence binding to IgE antibody, rank (Key/Preferably/More preferably)” value (serum of patient P51 (child, general immediate type allergy to wheat)) was “Key”.

Turning to “2606 (QLVQQL; REGION 1..6: note = epitope) [compound 2606]”, the “Epitope sequence binding to IgE antibody, rank of the sequence” value (serum of patient G5 (adult, general immediate type allergy to wheat), partial sequence) was “Key”.

In the case of “1454 (QQPISQQQAQ; REGION 1..10: note = epitope) [compound 1454]”, the “Rank of partial sequence” value (serum of patient P22 (WDEIA), sequence without X) is listed as “More preferably”.

On to “1407 (YLQPQQPISQ; REGION 1..10: note = epitope) [compound 1407]”, for which the “Epitope sequence binding to IgE antibody, rank of the sequence” value (serum of patient P3 (WDEIA), sequence without X) was “Preferably”.
